Where a SMILES comes first, the peptide text is derived from it. Bridges are numbered along the chain shown (N, C = ends). [ ]: non-standard residue; d: D form. Hyp = O=C(O)[C@@H]1C[C@@H](O)CN1; Pen = CC(C)(S)[C@H](N)C(=O)O; dDab = NCC[C@@H](N)C(=O)O; Nle = CCCC[C@H](N)C(=O)O; Dab = NCC[C@H](N)C(=O)O
Key:
[1] = in vitro; assay type: cell-based; conditions: human
Protocol: The cytotoxicity of compounds was determined by determining the number of viable cells using the Sigma Cell Counting Kit-8 (WST-8). HeLa cells were incubated at 37°C and 5% CO2 for 24 hours, after which the medium was replaced with fresh medium containing dilutions of compounds. […]

[2] = molecular target: T1, LptAmQ62L (Escherichia coli, UniProt P0ADV1, Q62L); assay: biochemical; assay type: binding, E. coli
T1 construct: His6-GB1 (N, cleaved yes); made in house; host or cells: E. coli BL21 (DE3)
Protocol: (§1) Protein stocks were purified and concentrated in buffer 1 [50 mM Na-Pi (pH 7) and 150 mM NaCl] and, if necessary, diluted to desired concentrations using buffer 2 [50 mM Na-Pi (pH 7), 150 mM NaCl, and 0.05% Tween 20]. Peptide stocks and fluorescently labeled peptide stocks were made in buffer 2. Every serial dilution consisted of 24 wells, the first well with the highest concentrate and the last well (well 24) with the lowest. First, 50 μl of buffer 2 was added to the wells 2 to 24 of each serial dilution. Then, 100 μl of concentrated unlabeled peptide/protein in their respective buffers was added to the first well. Fifty microliters were taken from the first well and added to the second well for a 1:1 serial dilution and continued for the 24 wells. […] Plates were covered with adhesive seals and left to incubate overnight at 4°C before FP measurements the next day. Anisotropy was measured using the Tecan Safire2 plate reader using a 10-nm bandwidth and setting the excitation and emission wavelengths to 635 and 670 nm, respectively. The G-factor (G) was also determined empirically as 1.094 for the instrument and included in all the anisotropy calculations.
(§2) For the indirect binding assays, r was calculated in the same manner as the direct binding assays. […] The control was subtracted from r to yield r′. Data were fit to a sigmoidal interpolation model on GraphPad Prism 9, and an IC50 was generated for each unlabeled peptide or protein measured.

[3] = molecular target: T2, LptAm (Escherichia coli, UniProt P0ADV1); assay: biochemical; assay type: binding, E. coli
T2 construct: His6-GB1 (N, cleaved yes); made in house; host or cells: E. coli BL21 (DE3)
Protocol: as §1, §2

[4] = system: K. pneumoniae NCTC 13443 (NDM-1) LptA Q62L mutant; assay: microbe, parasite or virus in culture; conditions: CLSI method; clone harboring LptA Q62L
Protocol: (§3) MIC assays [Clinical and Laboratory Standards Institute (CLSI) methodology] and serial passage studies were performed as described by Luther et al. ([6]). […] Resistant mutants were isolated, and their MIC values were determined and sent to Microbes NG (Birmingham, United Kingdom) for whole-genome sequencing and bioinformatic analysis.

[5] = system: E. coli ATCC 25922 LptA Q62L mutant; assay: microbe, parasite or virus in culture; conditions: CLSI method; clone harboring LptA Q62L
Protocol: as §3

[6] = system: E. coli ATCC 25922 (parent / WT); assay: microbe, parasite or virus in culture; conditions: CLSI method; parent strain
Protocol: as §3

[7] = system: K. pneumoniae NCTC 13443 (NDM-1) (parent / WT); assay: microbe, parasite or virus in culture; conditions: CLSI method; parent strain
Protocol: as §3

[8] = system: K. pneumoniae ATCC 43816 (parent / WT); assay: microbe, parasite or virus in culture; conditions: ATCC 43816
Protocol: as §3

[9] = Plasma protein binding; assay type: in vitro ADME, mouse; conditions: mouse, plasma, pH 7.5
Protocol: (§4) After ultrafiltration, protein binding was determined by subtracting the percentage of compound in ultrafiltrate from the total amount of compound in spiked plasma (table S4A).

[10] = system: human red blood cells; assay: Haemolysis; assay type: cell-based; conditions: PBS-washed human red blood cells; 1 h at 200 mg/liter, 37°C; OD 540 nm; versus 100% lysis control 2.5% Triton X-100; biological replicates
Protocol: To test their hemolytic potential, compounds were incubated in the presence of phosphate-buffered saline (PBS)–washed human red blood cells. After 1-hour incubation at 200 mg/liter and 37°C, the samples were centrifuged (3220g), the supernatants were diluted in Dulbecco’s PBS, and optical density at 540 nm was determined. The hemolysis induced by the compound was calculated versus a 100% lysis control prepared with 2.5% Triton X-100 (table S4A).

[11] = Plasma protein binding; assay type: in vitro ADME, human; conditions: human, plasma, pH 7.5
Protocol: as §4

T2 sequence (P0ADV1 28-159): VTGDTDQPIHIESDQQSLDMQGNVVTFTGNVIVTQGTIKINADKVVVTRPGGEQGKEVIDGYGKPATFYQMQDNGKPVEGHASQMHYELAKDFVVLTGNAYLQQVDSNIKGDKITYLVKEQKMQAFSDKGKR
T1 sequence (P0ADV1 28-159 Q62L): as the sequence (P0ADV1 28-159) above, with Q35L counted along it

Compound	IC50 at 48 h [1] [nM]	IC50 [2] [nM]	Ki [2] [nM]	IC50 [3] [nM]	Ki [3] [nM]	MIC K. pneumoniae NCTC 13443 (NDM-1) Q62L mutant [4] [micrograms per milliliter]	MIC E. coli ATCC 25922 Q62L mutant [5] [micrograms per milliliter]	MIC E. coli ATCC 25922 Parent [6] [micrograms per milliliter]	MIC K. pneumoniae NCTC 13443 (NDM-1) Parent [7] [micrograms per milliliter]	MIC K. pneumoniae ATCC 43816 Parent [8] [micrograms per milliliter]	fraction unbound at 30 min, 10 mg/liter [9]	Haemolysis % at 0.2 g/L [10] [%]	fraction unbound at 30 min, 10 mg/liter [11]
CCCC[C@H](NC(=O)[C@H](CCCNC(=N)N)NC(=O)[C@H](CCN)NC(=O)[C@@H]1CSSC[C@H](NC(=O)[C@H](Cc2ccc(O)cc2)NC(=O)[C@@H](NC(=O)[C@@H](NC(=O)[C@@H]2CCCN2C(=O)[C@@H](NC(=O)[C@@H]2CCCN2C(=O)[C@H](CCCCN)NC(=O)[C@@H](N)CCCCN)C(C)C)[C@@H](C)CC)[C@@H](C)CC)C(=O)N[C@@H](CC(N)=O)C(=O)N[C@@H](CCCNC(=N)N)C(=O)N[C@@H](CCCNC(=N)N)C(=O)N[C@@H]([C@@H](C)O)C(=O)NCC(=O)N[C@@H](CCCCN)C(=O)N1)C(=O)O [Compound 1] (H-KKPVPIIYCNRRTGKC[Dab]R[Nle]-OH; disulfide 9-16)	158000	30.4 ± 8.8	20.5 ± 6	6.6 ± 0.5	1.1 ± 0.1	>8	>8	0.063	0.5	0.25	0.14	0	0.24
CC[C@H](C)[C@H](NC(=O)[C@@H](NC(=O)[C@@H]1C[C@@H](O)CN1C(=O)[C@@H](N)C(C)C)[C@@H](C)CC)C(=O)N[C@@H](Cc1ccc(O)cc1)C(=O)N[C@@H]1C(=O)N[C@@H](CC(N)=O)C(=O)N[C@@H](CCCNC(=N)N)C(=O)N[C@@H](CCN)C(=O)N[C@@H]([C@@H](C)O)C(=O)N[C@H](CCN)C(=O)N[C@@H](CCCCN)C(=O)N[C@H](C(=O)N[C@@H](CCN)C(=O)N[C@@H](CCCNC(=N)N)C(=O)N[C@@H](Cc2ccc(O)cc2)C(=O)O)CSSC1(C)C [Compound 4] (H-V[Hyp]IIY[Pen]NR[Dab]T[dDab]KC[Dab]RY-OH; disulfide 6-13)	536000	–	–	–	–	4	0.25	0.063	1	0.25	0.14	0	0.09

Reference: article PMC10208570, “Peptidomimetic antibiotics disrupt the lipopolysaccharide transport bridge of drug-resistant Enterobacteriaceae” (Science Advances, 2023)
